# Source: patent publication US11186577B2, “Vasopressin receptor antagonists and products and methods related thereto” (BlackThorn Therapeutics, Inc., priority 2017, dated 2021)
# Assays:
# [1] = target: human Arginine Vasopressin Receptor 1a (AVPR1a) (Homo sapiens (Human), UniProt P37288); assay: Vasopressin V1A receptor antagonist assay (AVP-evoked calcium, FLIPR, CHO-AVPR1a cells); format: cell-based; conditions: read-out: V1a IC50
# In short: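 Antagonism measured as reduction of AVP (EC80, set each assay day) calcium response on FLIPR in dye-loaded CHO-AVPR1a cells. Compounds, 3 μM top in 10-point 1:3 dilution, in duplicate, added 15 min before agonist at 37° C.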
# [2] = target: human Arginine Vasopressin Receptor 1b (AVPR1b) (Homo sapiens (Human), UniProt P47901); assay: Vasopressin V1B receptor antagonist assay (AVP-evoked calcium, FLIPR, CHO-AVPR1b cells); format: cell-based
# Protocol: The purpose of the assay is to determine the inhibitory effect of synthesized compounds on the Vasopressin V1b receptor. The assay was performed in Chinese Hamster Ovary (CHO) cells expressing the human Arginine Vasopressin Receptor 1b (AVPR1b). Arginine Vasopressin (AVP) evokes an increase in intracellular calcium in CHO-AVPR1b cells which is measured in a fluorescence assay on the FLIPR^TETRA using calcium sensitive dyes. Test compounds were assessed for their ability to affect the magnitude of the response to AVP, with antagonists showing a concentration-dependent reduction in the AVP-mediated fluorescence.
# CHO-AVPR1b cells were maintained in routine culture in T175 Flasks at 37° C., 5% CO2. The growth medium consisted of Ham's F12 media supplemented with 10% v/v fetal bovine serum, 1× non-essential amino acids, and 0.4 mg/ml Geneticin G418.
# Cells were harvested from T175 flasks when they were 80-90% confluent by first washing the cell monolayer with PBS and then dissociated using trypsin 0.05%/EDTA (3 mL for a T175 Flask). The flasks were incubated at room temperature until the cells detached. To the cell suspension, 10 ml of growth media was added and the cell density determined using the Vi-Cell automated cell counter. The cells were spun at 1000 rpm for 3 minutes, then the supernatant was carefully removed and discarded. The cell pellet was re-suspended at 6.0e^5 cells/ml in growth media. 25 μL of cells in growth media was dispensed into each well (15,000 cells per well) of a poly-D-lysine coated black, clear bottomed, 384-well plate. The plates were incubated at 37° C., 5% CO2 overnight.
# At the start of each assay day, the potency of AVP is assessed and an EC80 concentration determined for subsequent compound profiling. Assays were performed using a two-step addition protocol on the FLIPR^TETRA; first addition of 5 μl of control or test compound at 10× final in assay buffer with 15 min incubation at 37° C., 5% CO2 followed by 10 μl of AVP at 6× final concentration in assay buffer. Changes in fluorescence were monitored for 3 min after both additions on the FLIPR^TETRA using 470-495 nm excitation and 515-575 nm emission wavelengths. The assay buffer consisted of HBSS (+Ca/+Mg) supplemented with 20 mM HEPES, and for the preparation of the AVP agonist only, 0.1% w/v bovine serum albumin. The assay was initiated by the removal of growth media from the cells and replacement with 45 μl of Calcium-6 dye (Molecular Devices) prepared at 1× in assay buffer. Cells were loaded with dye for 60-90 min at 37° C., 5% CO2 before initiation of the FLIPR^TETRA protocol. […] For compound profiling, test compounds were first serially diluted in DMSO (10-point curve, 1:3 dilutions) then diluted 33.3-fold in assay buffer prior to addition to the dye loaded cells on the FLIPR^TETRA. At the end of the incubation period 10 μl of AVP in assay buffer containing 0.1% BSA was added at the previously determined EC80 concentration.
# In-plate controls for the assay include a Nelivaptan concentration-response curve as the reference V1b antagonist and an AVP concentration-response curve to confirm the reproducibility of the EC80 used for the compound challenge.
# Sequence of human Arginine Vasopressin Receptor 1b (AVPR1b) (P47901 whole entry): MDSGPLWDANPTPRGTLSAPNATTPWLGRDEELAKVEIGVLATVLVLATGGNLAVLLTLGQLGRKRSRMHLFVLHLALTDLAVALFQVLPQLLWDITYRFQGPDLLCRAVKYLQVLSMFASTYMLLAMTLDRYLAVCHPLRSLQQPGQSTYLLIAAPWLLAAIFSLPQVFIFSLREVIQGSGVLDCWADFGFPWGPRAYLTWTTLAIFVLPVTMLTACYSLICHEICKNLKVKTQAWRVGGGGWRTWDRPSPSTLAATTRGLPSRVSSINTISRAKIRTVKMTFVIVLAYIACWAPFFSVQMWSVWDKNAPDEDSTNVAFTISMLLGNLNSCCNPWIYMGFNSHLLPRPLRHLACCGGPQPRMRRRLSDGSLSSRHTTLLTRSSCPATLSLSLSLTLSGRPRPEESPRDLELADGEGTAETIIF
# Sequence of human Arginine Vasopressin Receptor 1a (AVPR1a) (P37288 whole entry): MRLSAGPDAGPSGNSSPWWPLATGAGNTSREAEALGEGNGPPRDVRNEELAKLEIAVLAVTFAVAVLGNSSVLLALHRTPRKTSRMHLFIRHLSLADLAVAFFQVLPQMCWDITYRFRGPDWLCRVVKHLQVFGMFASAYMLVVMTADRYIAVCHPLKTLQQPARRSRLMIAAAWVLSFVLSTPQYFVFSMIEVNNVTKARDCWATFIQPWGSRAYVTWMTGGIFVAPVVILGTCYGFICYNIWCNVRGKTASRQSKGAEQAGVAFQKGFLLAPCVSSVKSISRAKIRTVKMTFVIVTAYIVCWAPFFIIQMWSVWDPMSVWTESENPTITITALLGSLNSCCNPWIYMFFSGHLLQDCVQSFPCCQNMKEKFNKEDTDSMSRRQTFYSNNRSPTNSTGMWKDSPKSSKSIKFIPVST
SMILES,IC50 [1],IC50 [2]
"COC(=O)N1Cc2cc(Cl)ccc2-n2c(C3CC4(C3)CN(c3ncccn3)C4)nnc2C1C (single isomer, unassigned) [Cpd 166A]",< 100 nM,> 1000 nM
"CC1c2nnc(C3CC4(C3)CN(c3ccc(F)cn3)C4)n2-c2ccc(Cl)cc2CN1C(=O)OC(CF)CF (single isomer, unassigned) [Cpd 203A]",< 100 nM,> 1000 nM
CC1c2nnc(C3CC4(C3)CN(c3cnccn3)C4)n2-c2ccc(Cl)cc2CN1C(=O)C1(F)CC1 (stereo not shown) [compound 177],< 100 nM,> 1000 nM
CC1c2nnc(C3CC4(C3)CN(c3ncc(F)cn3)C4)n2-c2ccc(Cl)cc2CN1C(=O)OC1(C)CC1 (stereo not shown) [compound 173],< 100 nM,> 1000 nM
O=C(N1Cc2cc(Cl)ccc2-n2c(nnc2C2CC3(C2)CN(c2cnccn2)C3)C1)C1(F)CC1 [compound 81],< 100 nM,> 1000 nM
CC(C)OC(=O)N1Cc2cc(Cl)ccc2-n2c(nnc2C2CC3(C2)CN(C(=O)C2CC2)C3)C1 [compound 153],< 100 nM,> 1000 nM
CCN1Cc2cc(Cl)ccc2-n2c(nnc2C2CC3(C2)CN(c2cnccn2)C3)C1 [compound 46],< 100 nM,> 1000 nM
"COC(=O)N1Cc2cc(Cl)ccc2-n2c(C3CC4(C3)CN(c3ccc(F)cn3)C4)nnc2C1C (single isomer, unassigned) [142A]",< 100 nM,> 1000 nM
"COC(=O)N1Cc2cc(Cl)ccc2-n2c(C3CC4(C3)CN(c3ccc(F)cn3)C4)nnc2C1C (stereo not shown) [compound 142, methyl 8-chloro-1-(2-(5-fluoropyridin-2-yl)-2-azaspiro[3.3]heptan-6-yl)-4-methyl-4H-benzo[f][1,2,4]triazolo[4,3-a][1,4]diazepine-5(6H)-carboxylate]",< 100 nM,> 1000 nM
CC(C)N1Cc2cc(Cl)ccc2-n2c(nnc2C2CC3(C2)CN(c2ccccn2)C3)C1 [compound 48],< 100 nM,> 1000 nM
"Clc1ccc2c(c1)CN(C1COC1)Cc1nnc(C3CC4(C3)CN(c3ccccn3)C4)n1-2 [compound 57, 8-chloro-5-(oxetan-3-yl)-1-(2-(pyridin-2-yl)-2-azaspiro[3.3]heptan-6-yl)-5,6-dihydro-4H-benzo[f][1,2,4]triazolo[4,3-a][1,4]diazepine]",< 100 nM,> 1000 nM
CN1Cc2cc(Cl)ccc2-n2c(nnc2C2CC3(C2)CN(c2cccc(F)n2)C3)C1 [compound 8],< 100 nM,> 1000 nM
CC(C)N1Cc2cc(Cl)ccc2-n2c(nnc2C2CC3(C2)CN(c2ccc(F)cn2)C3)C1 [compound 50],< 100 nM,> 1000 nM
COC(=O)N1Cc2cc(Cl)ccc2-n2c(C3CC4(C3)CN(c3cnccn3)C4)nnc2C1C (stereo not shown) [compound 165],< 100 nM,> 1000 nM
Fc1ccc(N2CC3(CC(c4nnc5n4-c4ccc(Cl)cc4CN(C4CCC4)C5)C3)C2)nc1 [compound 42],< 100 nM,> 1000 nM
CC(C)C(=O)N1Cc2cc(Cl)ccc2-n2c(nnc2C2CC3(C2)CN(c2ccccn2)C3)C1 [compound 71],< 100 nM,> 1000 nM

SMILES,IC50 [1],IC50 [2]
"CC1c2nnc(C3CC4(C3)CN(c3ncc(F)cn3)C4)n2-c2ccc(Cl)cc2CN1C(=O)OC1CC1 (single isomer, unassigned) [Cpd 192A]",< 100 nM,> 1000 nM
"CCOC(=O)N1Cc2cc(Cl)ccc2-n2c(C3CC4(C3)CN(c3ccc(F)cn3)C4)nnc2C1C (single isomer, unassigned) [Cpd 169A]",< 100 nM,> 1000 nM
"CC1c2nnc(C3CC4(C3)CN(c3ccc(F)cn3)C4)n2-c2ccc(Cl)cc2CN1C(=O)C(C)(C)F (single isomer, unassigned) [Cpd 178A]",< 100 nM,> 1000 nM
CC1c2nnc(C3CC4(C3)CN(c3ccc(F)cn3)C4)n2-c2ccc(Cl)cc2CN1C(=O)C1(F)CC1 (stereo not shown) [compound 174],< 100 nM,> 1000 nM
CCC(=O)N1Cc2cc(Cl)ccc2-n2c(nnc2C2CC3(C2)CN(c2ccccn2)C3)C1 [compound 67],< 100 nM,> 1000 nM
CN1Cc2cc(Cl)ccc2-n2c(nnc2C2CC3(C2)CN(c2ncccc2F)C3)C1 [compound 4],< 100 nM,> 1000 nM
CC(CF)N1Cc2cc(Cl)ccc2-n2c(nnc2C2CC3(C2)CN(c2ccccn2)C3)C1 (stereo not shown) [compound 58],< 100 nM,> 1000 nM
O=C(OC1CC1)N1Cc2cc(Cl)ccc2-n2c(nnc2C2CC3(C2)CN(c2ccc(F)cn2)C3)C1 [compound 90],< 100 nM,> 1000 nM
"COCCN1Cc2cc(Cl)ccc2-n2c(nnc2C2CC3(C2)CN(c2ccccn2)C3)C1 [compound 39, 8-chloro-5-(2-methoxyethyl)-1-(2-(pyridin-2-yl)-2-azaspiro[3.3]heptan-6-yl)-5,6-dihydro-4H-benzo[f][1,2,4]triazolo[4,3-a][1,4]diazepine]",< 100 nM,> 1000 nM
COC(=O)N1Cc2cc(Cl)ccc2-n2c(C3CC4(C3)CN(c3ncccc3F)C4)nnc2C1C (stereo not shown) [compound 182],< 100 nM,> 1000 nM
"CC1c2nnc(C3CC4(C3)CN(c3ncccn3)C4)n2-c2ccc(Cl)cc2CN1C(=O)OC1CC1 (single isomer, unassigned) [Cpd 171A]",< 100 nM,> 1000 nM
O=C(OC(CF)CF)N1Cc2cc(Cl)ccc2-n2c(nnc2C2CC3(C2)CN(c2ccc(F)cn2)C3)C1 [compound 79],< 100 nM,> 1000 nM
COC(=O)N1Cc2cc(Cl)ccc2-n2c(nnc2C2CC3(C2)CN(c2ccc(F)cn2)C3)C1 [compound 61],< 100 nM,> 1000 nM
"CC(C)OC(=O)N1Cc2cc(Cl)ccc2-n2c(C3CC4(C3)CN(c3ccc(F)cn3)C4)nnc2C1C (single isomer, unassigned) [Cpd 163A]",< 100 nM,> 1000 nM
COC(=O)N1Cc2cc(Cl)ccc2-n2c(C3CC4(C3)CN(c3cccc(C)n3)C4)nnc2C1C (stereo not shown) [compound 180],< 100 nM,> 1000 nM
CCOC(=O)N1Cc2cc(Cl)ccc2-n2c(nnc2C2CC3(C2)CN(c2ccc(F)cn2)C3)C1 [compound 69],< 100 nM,> 1000 nM
